Measurements reported in patent US12655116B2, “Substituted isophthalic acid diamides” (Bayer Aktiengesellschaft, priority 2020, dated 2026).

Columns and labels:
ALOMY = test: Pre-emergence herbicidal action against ALOMY; type: in vivo, Alopecurus myosuroides; details: 80 g/ha, pre-emergence, scored visually after 3 weeks vs untreated controls (100% = plants have died, 0% = like control plants)
Source text: (§1) Seeds of monocotyledonous and dicotyledonous weed plants and crop plants are laid out in sandy loam soil in wood-fiber pots and covered with soil. The compounds of the invention, formulated in the form of wettable powders (WP) or as emulsion concentrates (EC), are then applied to the surface of the covering soil in the form of an aqueous suspension or emulsion at a water application rate equivalent to 600 to 800 l/ha, with addition of 0.2% wetting agent. After the treatment, the pots are placed in a greenhouse and kept under good growth conditions for the trial plants. The damage to the test plants is scored visually after a test period of 3 weeks by comparison with untreated controls (herbicidal activity in percent (%): 100% activity=the plants have died, 0% activity=like control plants). […] The tables below illustrate, in an illustrative manner, the post-emergence herbicidal action of the compounds of the invention, the herbicidal activity being stated in percent.

AMARE [1] = test: Pre-emergence herbicidal action against AMARE; type: in vivo, Amaranthus retroflexus
Source text: as §1

ECHCG [2] = test: Pre-emergence herbicidal action against ECHCG; type: in vivo, Echinochloa crus-galli; details: 80 g/ha
Source text: as §1

MATIN = test: Pre-emergence herbicidal action against MATIN; type: in vivo, Matricaria inodora
Source text: as §1

SETVI [3] = test: Pre-emergence herbicidal action against SETVI; type: in vivo, Setaria viridis; details: dosage 80 g/ha
Source text: as §1

AMARE [4] = test: Post-emergence herbicidal action against AMARE; type: in vivo, Amaranthus retroflexus; details: 20 g/ha, visual assessment about 3 weeks after treatment, 100% = plants have died, 0% = like control plants
Protocol: (§2) Seeds of monocotyledonous and dicotyledonous weed and crop plants are laid out in sandy loam soil in wood-fiber pots, covered with soil and cultivated in a greenhouse under good growth conditions. 2 to 3 weeks after sowing, the test plants are treated at the one-leaf stage. The compounds of the invention, formulated in the form of wettable powders (WP) or as emulsion concentrates (EC), are then sprayed onto the green parts of the plants in the form of an aqueous suspension or emulsion at a water application rate equivalent to 600 to 800 l/ha, with addition of 0.2% wetting agent. After the test plants have been left to stand in the greenhouse under optimal growth conditions for about 3 weeks, the action of the preparations is assessed visually in comparison to untreated controls (herbicidal action in percent (%): 100% activity=the plants have died, 0% activity=like control plants). […] The tables below illustrate, in an illustrative manner, the post-emergence herbicidal action of the compounds of the invention, the herbicidal activity being stated in percent.

ECHCG [5] = test: Post-emergence herbicidal action against ECHCG; type: in vivo, Echinochloa crus-galli; details: dosage 20 g/ha
Protocol: as §2

PHBPU = test: Post-emergence herbicidal action against PHBPU; type: in vivo, Pharbitis purpurea; details: dosage 20 g/ha
Protocol: as §2

ABUTH [6] = test: Pre-emergence herbicidal action against ABUTH; type: in vivo, Abutilon theophrasti; details: for Pre-emergence action against ABUTH (herbicidal activity): 80 g/ha, scored visually after 3 weeks vs untreated controls (100% = plants have died, 0% = like control plants)
Source text: as §1

VIOTR [7] = test: Pre-emergence herbicidal action against VIOTR; type: in vivo, Viola tricolor; details: dosage 80 g/ha
Source text: as §1

DIGSA [8] = test: Pre-emergence herbicidal action against DIGSA; type: in vivo, Digitaria sanguinalis
Source text: as §1

ABUTH [9] = test: Post-emergence herbicidal action against ABUTH; type: in vivo, Abutilon theophrasti; details: visual assessment about 3 weeks after treatment vs untreated controls
Protocol: as §2

SETVI [10] = test: Post-emergence herbicidal action against SETVI; type: in vivo, Setaria viridis
Protocol: as §2

VIOTR [11] = test: Post-emergence herbicidal action against VIOTR; type: in vivo, Viola tricolor
Protocol: as §2

DIGSA [12] = test: Post-emergence herbicidal action against DIGSA; type: in vivo, Digitaria sanguinalis; details: for Post-emergence action against DIGSA in %: 5 g/ha; for Post-emergence action against DIGSA: 20 g/ha
Protocol: as §2

[13] = 20 g/ha, scored visually after 3 weeks vs untreated controls, 100% = plants have died, 0% = like control plants
[14] = 80 g/ha, scored visually after 3 weeks vs untreated controls (100% = plants have died, 0% = like control plants)

Row | SMILES | Pre-emergence action against AMARE in % (AMARE [1]; [13]) [%] | Pre-emergence action against AMARE in % (AMARE [1]; [14]) [%] | Pre-emergence action against ECHCG in % (ECHCG [2]) [%] | Pre-emergence action against MATIN in % (MATIN; dosage 80 g/ha) [%] | Pre-emergence action against SETVI in % (SETVI [3]) [%] | Post-emergence action at 20 g/ha against AMARE in % (AMARE [4]) [%] | Post-emergence action against ECHCG in % (ECHCG [5]) [%] | Pre-emergence action against ABUTH (herbicidal activity) (ABUTH [6]) [%] | Pre-emergence action against DIGSA in % (DIGSA [8]; dosage 20 g/ha) [%] | Pre-emergence action against DIGSA in % (DIGSA [8]; dosage 80 g/ha) [%] | Post-emergence action against ABUTH in % (ABUTH [9]; dosage 20 g/ha) [%] | Post-emergence action against SETVI in % (SETVI [10]; dosage 20 g/ha) [%] | Post-emergence action against DIGSA in % (DIGSA [12]) [%] | Post-emergence action against DIGSA (DIGSA [12]) [%] | further results
1 | Cn1nnnc1NC(=O)c1ccc(C(F)F)c(C(=O)NCc2cccs2)c1Cl [Example 1-162] | 90 | 100 | 100 | 90 | 80 | 90 | 80 | – | – | – | – | – | – | – | Pre-emergence action against ALOMY (herbicidal activity) (ALOMY): 90%; Post-emergence action against PHBPU in % (PHBPU): 80%
2 | CCc1c(C(=O)Nc2nnc(C)o2)ccc(C(F)(F)F)c1C(=O)NC [Example 6-210] | – | 100 | 90 | 90 | 100 | 100 | 80 | 100 | 100 | 100 | 90 | 100 | 90 | 90 | Pre-emergence action against MATIN in % (MATIN; dosage 20 g/ha): 80%; Pre-emergence action against VIOTR in % (VIOTR [7]): 90%; Post-emergence action against SETVI in % (SETVI [10]; dosage 5 g/ha): 90%; Post-emergence action against VIOTR in % (VIOTR [11]; 20 g/ha): 80%
3 | COc1c(C(=O)Nc2nnc(C)o2)ccc(C(F)(F)F)c1C(=O)NC1CC1 [Example 6-45] | 80 | 100 | 80 | 90 | 100 | 80 | 90 | 90 | 90 | 100 | 90 | 100 | 90 | 90 | Pre-emergence action against VIOTR in % (VIOTR [7]): 90%; Post-emergence action against ABUTH in % (ABUTH [9]; dosage 5 g/ha): 80%
4 | CNC(=O)c1c(C(F)(F)F)ccc(C(=O)Nc2nnc(C)o2)c1OC [Example 6-43] | – | 100 | 100 | 80 | 90 | – | – | 100 | – | 100 | – | 90 | 90 | 100 | –
5 | COCCNC(=O)c1c(C(F)F)ccc(C(=O)Nc2nnc(C)o2)c1Cl [Example 6-262] | 90 | 100 | 90 | 100 | 100 | 90 | 80 | 100 | 100 | 100 | 90 | 80 | – | 90 | Pre-emergence action against VIOTR in % (VIOTR [7]): 90%; Post-emergence action against ABUTH in % (ABUTH [9]; dosage 5 g/ha): 80%
6 | Cc1nnc(NC(=O)c2ccc(C(F)F)c(C(=O)NC3CCC3)c2Cl)o1 [Example 6-261] | 100 | 100 | 100 | 100 | 100 | 90 | 90 | 100 | 80 | 100 | 80 | – | – | 90 | Pre-emergence action against ABUTH (herbicidal activity in percent) (ABUTH [6]; dosage 20 g/ha, scored visually after 3 weeks vs untreated controls, 100% = plants have died, 0% = like control plants): 80%; Pre-emergence action against MATIN in % (MATIN; dosage 20 g/ha): 90%
7 | CCNC(=O)c1c(C(F)F)ccc(C(=O)Nc2nnc(C)o2)c1SC [Example 6-75] | – | – | – | – | – | – | – | – | – | 80 | – | – | – | 90 | –
8 | Cc1nnc(NC(=O)c2ccc(C(F)F)c(C(=O)Nc3ccccc3)c2Cl)o1 [Example 6-266] | 90 | 100 | – | 80 | – | 100 | – | 80 | – | – | – | – | – | – | Post-emergence action against PHBPU in % (PHBPU): 80%
9 | Cc1nnc(NC(=O)c2ccc(C(F)(F)F)c(C(=O)NCC(F)F)c2C2CC2)o1 [Example 6-230] | 100 | 100 | 80 | 80 | – | 90 | – | 90 | – | 80 | – | – | – | – | Post-emergence action against PHBPU in % (PHBPU): 80%
10 | CNC(=O)c1c(C(F)F)ccc(C(=O)Nc2nnc(C)o2)c1C1CC1 [Example 6-231] | – | 100 | – | 80 | – | 90 | – | – | 80 | 90 | – | – | – | – | Post-emergence action against VIOTR in % (VIOTR [11]; 5 g/ha): 90%; Post-emergence action against VIOTR in % (VIOTR [11]; 20 g/ha): 90%
11 | CCNC(=O)c1c(C(F)(F)F)ccc(C(=O)Nc2nnc(C)o2)c1OC [Example 6-44] | 80 | 100 | 100 | 80 | 90 | 90 | 90 | – | – | – | 80 | 80 | 80 | 90 | –
